{
  "source": "patent US20170226139A1",
  "about": "“CRYSTALLINE SALTS OF (Z)-O-OCTADEC-9-EN-1-YL O,O-DIHYDROGEN PHOSPHOROTHIOATE” (priority 2013, published 2017)",
  "key": {"[1]": {"tested_on": "lysophosphatidic acid receptor (LPAR)", "test": "Calcium-mobilization assay, overall statements for all species and LPAR subtypes tested", "assay_type": "cell-based", "source_text": "The compound was medicinally designed as an LPA analog with the goal of decreasing the otherwise rapid metabolism of LPA itself. […] These receptors are ubiquitous by tissue and in those eukaryotes investigated. […] Thus, the mechanism of drug action for GI-ARS protection is activation of the transmembrane G protein-coupled lysophosphatidic acid receptor (LPAR) and, more specifically, the LPAR2 GPCR subtype. The primary pharmacodynamics is that LPAR2 activation leads to a cascade of intracellular events that switch cells from an apoptotic to a repair/regenerative pathway.\nWe investigated structure-activity relationships across species, LPAR subtypes and between Rx100 and two known process impurities encountered in manufacture: Rx103 (‘E’ isomer) and Rx200 (oleyl phosphate and impurity, which can be an Rx100 degradant along with oleyl alcohol). Rx100, Rx103, Rx200 and native LPA were investigated at different human LPAR subtypes. In addition, the activity of these compounds was evaluated at LPA2 receptors from the rhesus, rat and mouse species. Human LPA1/2/3 subtypes were transfected into mouse embryonic fibroblasts (MEF) or rat hepatoma cells (RH7777)—both of which are normally non-responsive or null to LPA. Human LPA4 was transfected into Chinese hamster ovary (CHO) cells and LPA5 into the B103 neuroblastoma cell line. […] The B103 rat neuroblastoma cell line is endogenously nonresponsive to LPA but expresses heterologous LPA5 receptors well. […] LPAR activation elicits a G-protein-mediated transient rise in intracellular calcium level that is proportional to the concentration of LPA applied. The intracellular calcium level was quantified by the calcium-selective fluorescent indicator FURA-2 (e.g., increased intracellular calcium surge=increased fluorescence).\nOleyl alcohol is, of course, a common component of many non-toxic ingested or dermally applied substances."}, "[2]": {"tested_on": "male Rhesus macaque Animal Model of GI-ARS", "test": "Survival after partial body irradiation, male Rhesus macaque Animal Model of GI-ARS", "assay_type": "in vivo", "procedure": "Using a partial body irradiation (tibial sparing) animal model in the female C57BL/6 mice, we tested the survival advantages conferred by GMP Rx100.L-Lysine salt. As a result, when administered at 0.3 to 3 mg/kg/12 h×6 doses starting at +24 hours after exposure to 15.5 to 15.7 Gy from a ^137Cesium irradiator which otherwise reliably produces an LD70-90/10 (in 10 days, 70-90% mice die after irradiation), the mortality was reduced by 20% to 50%. When administered at 0.1 mg/kg/day×6 doses in a partial body irradiation Animal Model in 19 male Rhesus macaque, a 37% increase in survival at a normally LD70/34 dose of X-ray radiation was observed. By allometric scaling using body surface area, these lowest effective doses translate to 0.02 mg/kg/day and to 0.03 mg/kg/day in humans, respectively.\nThese Animal Model studies were all conducted using partial body irradiation (PBI) with tibial bone marrow sparing except the earliest study which was performed with Total Abdominal Irradiation (TAI). The male Rhesus macaque model was developed by MacVittie. The female inbred murine PBI GI-ARS Animal Model was developed by the inventors. […] Differences in radiation sensitivity by gender in rodent species are well appreciated. We are not aware of PBI GI-ARS models other than these that meet criteria required to conduct a prospective, blinded, controlled, randomized study of efficacy."}, "[3]": {"test": "physchem", "details": "thermodynamic from solid"}, "[4]": {"test": "Solubility by incremental addition method in water or simulated formulation solvent"}, "[5]": {"test": "Qualitative solubility of Rx100.L-Lysine salt in 13 additional solvents", "assay_type": "physicochemical", "details": "for Observation (qualitative solubility): ~50 mg solid", "source_text": "The solubility of Rx100.L-Lysine salt was further tested in 13 additional solvents."}, "[6]": {"details": "UC Davis 2011, Rhesus (♂), 0.1 mg/kg (q24 × 6), start +4, 11.5 Gy, non-GLP"}, "[7]": {"details": "UC Davis 2011, Rhesus (♂), 0.1 mg/kg (q24 × 6), start +4, 11.5 Gy, non-GLP, vs vehicle"}},
  "note": "“Also recorded” adds a separate entry of the source. Read-outs that look alike come from different tables or passages of the source.",
  "data": [
    {"smiles": "CCCCCCCC/C=C\\CCCCCCCCOP(O)(O)=S", "note": "[Rx100, (Z)—O-octadec-9-en-1-yl O,O-dihydrogen phosphorothioate]", "values": [
      {"measurement": "LPAR activation", "setting": "[1]", "result": "pan lysophosphatidic acid receptor (LPAR) agonist; also recorded: substantially more in vitro activity"},
      {"measurement": "Survival Day 10, Rx100 arm (survivors/animals)", "setting": "[2]; [6]", "result": "2/9"},
      {"measurement": "Survival Day ≧30, Rx100 arm (survivors/animals)", "setting": "[2]; [6]", "result": "6/9"},
      {"measurement": "Survival Advantage Day 10", "setting": "[2]; [7]", "result": 8, "unit": "%"},
      {"measurement": "Survival Advantage Day ≧30", "setting": "[2]; [7]", "result": 37, "unit": "%"}
    ]},
    {"smiles": "CCCCCCCC/C=C\\CCCCCCCCOP(O)(O)=S", "note": "[Rx100.L-Lysine, (Z)—O-octadec-9-en-1-yl O,O-dihydrogen phosphorothioate]", "values": [
      {"measurement": "solubility", "setting": "[3]; simulated formulation solvent, aqueous with cosolvent or surfactant or cyclodextrin", "result": "> 43", "unit": "mg/mL"},
      {"measurement": "solubility", "setting": "[3]; water", "result": "> 48", "unit": "mg/mL"},
      {"measurement": "Solubility in water", "setting": "[4]", "result": "soluble in water"},
      {"measurement": "Solubility in the simulated formulation solvent", "setting": "[4]; 3% polyethylene glycol 200, 1% ethanol, 10 mM monosodium phosphate, balance water", "result": "soluble"},
      {"measurement": "Solubility in water", "setting": "[4]; listed as L-Lysine salt", "result": "soluble"},
      {"measurement": "Observation (qualitative solubility)", "setting": "[5]; Acetone:water (1:1), 0.5 mL added", "result": "dissolved"},
      {"measurement": "Observation (qualitative solubility)", "setting": "[5]; Acetone, 0.75 mL added", "result": "slurry"},
      {"measurement": "Observation (qualitative solubility)", "setting": "[5]; EtOH:water (1:1), 0.75 mL added", "result": "dissolved"},
      {"measurement": "Observation (qualitative solubility)", "setting": "[5]; EtOH:water (8:2), 0.75 mL added", "result": "cloudy"},
      {"measurement": "Observation (qualitative solubility)", "setting": "[5]; EtOH, 0.75 mL added", "result": "slurry"},
      {"measurement": "Qualitative solubility", "setting": "[5]; IPA-water (1:1)", "result": "soluble"},
      {"measurement": "Observation (qualitative solubility)", "setting": "[5]; IPA:water (1:1), 0.75 mL added", "result": "dissolved"},
      {"measurement": "Observation (qualitative solubility)", "setting": "[5]; IPA:water (8:2), 0.75 mL added", "result": "oil"},
      {"measurement": "Observation (qualitative solubility)", "setting": "[5]; IPA, 0.75 mL added", "result": "slurry"},
      {"measurement": "Observation (qualitative solubility)", "setting": "[5]; MeOH:water (1:1), 0.5 mL added", "result": "dissolved"},
      {"measurement": "Observation (qualitative solubility)", "setting": "[5]; MeOH:water (8:2), 0.75 mL added", "result": "dissolved"},
      {"measurement": "Observation (qualitative solubility)", "setting": "[5]; MeOH, 0.75 mL added", "result": "slurry"},
      {"measurement": "Observation (qualitative solubility)", "setting": "[5]; THF:water (1:1), 0.5 mL added", "result": "oil"},
      {"measurement": "Observation (qualitative solubility)", "setting": "[5]; THF, 0.75 mL added", "result": "slurry"},
      {"measurement": "Qualitative solubility", "setting": "[5]; acetone:water (1:1)", "result": "soluble"},
      {"measurement": "Qualitative solubility", "setting": "[5]; ethanol:water (1:1)", "result": "soluble"},
      {"measurement": "Qualitative solubility", "setting": "[5]; methanol:water (1:1)", "result": "soluble"},
      {"measurement": "Qualitative solubility", "setting": "[5]; methanol:water (8:2)", "result": "soluble"},
      {"measurement": "increase in survival", "setting": "[2]; 0.1 mg/kg/day×6 doses, 19 male Rhesus macaque, normally LD70/34 dose of X-ray radiation", "result": 37, "unit": "%"}
    ]}
  ]
}
